Test results: ChEMBL document CHEMBL1143875, “Synthesis and structure-activity relationships of thiadiazole-derivatives as potent and orally active peroxisome proliferator-activated receptors alpha/delta dual agonists” (Bioorg Med Chem, 2008)
Calls of active or inactive are those of the source. No cut-off for these calls is given here.

What was measured:
[1] = Cmax in Sprague-Dawley rat at 0.1 mg/kg administered as multiple dose after 8 days; format: ADME, organism-based; set-up: dose 0.1 mg/kg; conditions: in vivo
[2] = Half life in Sprague-Dawley rat at 3 mg/kg administered as single dose on day 8; format: ADME, organism-based; set-up: dose 3 mg/kg; conditions: in vivo
[3] = Cmax in Beagle dog at 0.3 mg/kg administered as multiple dose after 7 days; format: ADME, organism-based, Canis lupus familiaris; set-up: dose 0.3 mg/kg; conditions: in vivo
Canis familiaris [4] = assay: Antihyperlipidemic activity in Beagle dog serum assessed as reduction in total cholesterol level at 0.3 to 10 mg/kg, po/day after 7 days; format: functional, organism-based; conditions: Canis lupus familiaris
[5] = Cmax in Sprague-Dawley rat at 1 mg/kg administered as multiple dose after 8 days; format: ADME, organism-based; set-up: dose 1 mg/kg; conditions: in vivo
[6] = Induction of Pa9 gene expression in human skeletal muscle cells at 1000 nM by RT-PCR; format: functional
Mus musculus [7] = assay: Reduction in triglyceride level in po dosed hApoA1 transgenic mouse after 7 days; format: functional, organism-based
[8] = Half life in Beagle dog at 10 mg/kg administered as single dose on day 7; format: ADME, organism-based, Canis lupus familiaris; set-up: dose 10 mg/kg; conditions: in vivo
Canis familiaris [9] = assay: Effect on alanine aminotransferase level in Beagle dog serum at 0.3 to 3 mg/kg, po/day after 7 days; format: functional, organism-based; conditions: Canis lupus familiaris
[10] = Activity at liver X receptor
[11] = Cmax in Sprague-Dawley rat at 0.3 mg/kg administered as multiple dose after 8 days; format: ADME, organism-based; set-up: dose 0.3 mg/kg; conditions: in vivo
[12] = Activity at retinoic acid X receptor
[13] = Half life in Sprague-Dawley rat at 0.1 mg/kg administered as multiple dose after 8 days; format: ADME, organism-based; set-up: dose 0.1 mg/kg; conditions: in vivo
[14] = Half life in ob/ob C57BL/6J-leptin deficient obese mouse at 0.3 mg/kg administered as multiple dose after 11 days; format: ADME, organism-based; set-up: dose 0.3 mg/kg; conditions: in vivo
[15] = Half life in Beagle dog at 1 mg/kg administered as multiple dose after 7 days; format: ADME, organism-based, Canis lupus familiaris; set-up: dose 1 mg/kg; conditions: in vivo
Canis familiaris [16] = assay: Antihyperlipidemic activity in Beagle dog serum assessed as reduction in free fatty acids level at 0.3 to 10 mg/kg, po/day after 7 days; format: functional, organism-based; conditions: Canis lupus familiaris
[17] = AUC in ob/ob C57BL/6J-leptin deficient obese mouse at 0.3 mg/kg administered as multiple dose after 11 days; format: ADME, organism-based; set-up: dose 0.3 mg/kg; conditions: plasma
[18] = AUC in ob/ob C57BL/6J-leptin deficient obese mouse at 3 mg/kg administered as single dose on day 11; format: ADME, organism-based; set-up: dose 3 mg/kg; conditions: plasma
[19] = Cmax in Sprague-Dawley rat at 3 mg/kg administered as single dose on day 8; format: ADME, organism-based; set-up: dose 3 mg/kg; conditions: in vivo
[20] = AUC in ob/ob C57BL/6J-leptin deficient obese mouse at 1 mg/kg administered as multiple dose after 11 days; format: ADME, organism-based; set-up: dose 1 mg/kg; conditions: plasma
[21] = AUC in Sprague-Dawley rat at 1 mg/kg administered as multiple dose after 8 days; format: ADME, organism-based; set-up: dose 1 mg/kg; conditions: plasma
Canis familiaris [22] = assay: Antihyperlipidemic activity in Beagle dog serum assessed as reduction in triglyceride level at 0.3 to 10 mg/kg, po/day after 7 days; format: functional, organism-based; conditions: Canis lupus familiaris
[23] = target: T1, Peroxisome proliferator-activated receptor alpha (Homo sapiens) (UniProt Q07869); assay: Agonist activity at human PPARalpha-Gal4 in HEK293 cells by luciferase reporter assay relative to (S)-2-{2-[1-ethyl-3-(4-trifluoro-methoxyphenyl)ureido]indan-5-ylsulfanyl}-2-methylpropionic acid; format: functional, cell-based
T1 sequence (whole entry): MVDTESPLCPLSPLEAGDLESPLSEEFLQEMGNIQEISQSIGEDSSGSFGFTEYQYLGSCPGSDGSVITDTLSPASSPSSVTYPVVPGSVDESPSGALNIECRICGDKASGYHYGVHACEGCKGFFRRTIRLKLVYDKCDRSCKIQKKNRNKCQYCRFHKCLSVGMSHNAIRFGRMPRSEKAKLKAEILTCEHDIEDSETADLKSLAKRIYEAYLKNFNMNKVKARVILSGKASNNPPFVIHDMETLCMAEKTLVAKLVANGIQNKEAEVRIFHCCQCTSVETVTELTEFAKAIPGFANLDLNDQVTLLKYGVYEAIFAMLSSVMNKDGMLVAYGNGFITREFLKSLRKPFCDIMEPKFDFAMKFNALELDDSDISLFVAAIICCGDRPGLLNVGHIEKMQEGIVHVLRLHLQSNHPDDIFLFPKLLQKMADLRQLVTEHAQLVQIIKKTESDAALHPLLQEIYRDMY

[24] = AUC in Beagle dog at 10 mg/kg administered as multiple dose after 7 days; format: ADME, organism-based, Canis lupus familiaris; set-up: dose 10 mg/kg; conditions: plasma
[25] = Induction of ABCA1 gene expression in human skeletal muscle cells at 1000 nM by RT-PCR; format: functional
Canis familiaris [26] = assay: Effect on aspartate aminotransferase level in Beagle dog serum at 0.3 to 3 mg/kg, po/day after 7 days; format: functional, organism-based; conditions: Canis lupus familiaris
[27] = Half life in ob/ob C57BL/6J-leptin deficient obese mouse at 1 mg/kg administered as multiple dose after 11 days; format: ADME, organism-based; set-up: dose 1 mg/kg; conditions: in vivo
[28] = Half life in ob/ob C57BL/6J-leptin deficient obese mouse at 0.1 mg/kg administered as multiple dose after 11 days; format: ADME, organism-based; set-up: dose 0.1 mg/kg; conditions: in vivo
[29] = AUC in Sprague-Dawley rat at 3 mg/kg administered as single dose on day 8; format: ADME, organism-based; set-up: dose 3 mg/kg; conditions: plasma
[30] = AUC in ob/ob C57BL/6J-leptin deficient obese mouse at 3 mg/kg administered as multiple dose after 11 days; format: ADME, organism-based; set-up: dose 3 mg/kg; conditions: plasma
Mus musculus [31] = assay: Increase in HDL cholesterol level in po dosed hApoA1 transgenic mouse after 7 days; format: functional, organism-based
[32] = target: T2, Peroxisome proliferator-activated receptor alpha (Homo sapiens, UniProt Q07869); assay: Agonist activity at human PPARalpha-Gal4 in HEK293 cells by luciferase reporter assay; format: functional, cell-based
T2 sequence (Q07869 whole entry): T1 sequence (whole entry)

[33] = Half life in Sprague-Dawley rat at 3 mg/kg administered as multiple dose after 8 days; format: ADME, organism-based; set-up: dose 3 mg/kg; conditions: in vivo
[34] = Cmax in Beagle dog at 1 mg/kg administered as multiple dose after 7 days; format: ADME, organism-based, Canis lupus familiaris; set-up: dose 1 mg/kg; conditions: in vivo
Mus musculus [35] = assay: […] effect of ob/ob C57BL/6J-leptin deficient obese mouse assessed as reduction in serum glucose level at 0.1 to 3 mg/kg, po after 11 days; format: functional; set-up: scale not given: the % may be the effect or the level left; conditions: dose mg/kg 0.1-3
Mus musculus [36] = assay: […] effect of ob/ob C57BL/6J-leptin deficient obese mouse assessed as reduction in serum insulin level at 0.1 to 3 mg/kg, po after 11 days; format: functional; set-up: scale not given: the % may be the effect or the level left; conditions: dose mg/kg 0.1-3
[37] = AUC in Beagle dog at 1 mg/kg administered as multiple dose after 7 days; format: ADME, organism-based, Canis lupus familiaris; set-up: dose 1 mg/kg; conditions: plasma
[38] = Half life in Sprague-Dawley rat at 1 mg/kg administered as multiple dose after 8 days; format: ADME, organism-based; set-up: dose 1 mg/kg; conditions: in vivo
[39] = Half life in Beagle dog at 0.3 mg/kg administered as multiple dose after 7 days; format: ADME, organism-based, Canis lupus familiaris; set-up: dose 0.3 mg/kg; conditions: in vivo
[40] = AUC in ob/ob C57BL/6J-leptin deficient obese mouse at 0.1 mg/kg administered as multiple dose after 11 days; format: ADME, organism-based; set-up: dose 0.1 mg/kg; conditions: plasma
Mus musculus [41] = assay: Increase in hApoA1 level in po dosed hApoA1 transgenic mouse after 7 days; format: functional, organism-based
[42] = Cmax in Beagle dog at 10 mg/kg administered as single dose on day 7; format: ADME, organism-based, Canis lupus familiaris; set-up: dose 10 mg/kg; conditions: in vivo
[43] = Half life in Beagle dog at 3 mg/kg administered as multiple dose after 7 days; format: ADME, organism-based, Canis lupus familiaris; set-up: dose 3 mg/kg; conditions: in vivo
[44] = Cmax in ob/ob C57BL/6J-leptin deficient obese mouse at 1 mg/kg administered as multiple dose after 11 days; format: ADME, organism-based; set-up: dose 1 mg/kg; conditions: in vivo
[45] = Cmax in Beagle dog at 3 mg/kg administered as multiple dose after 7 days; format: ADME, organism-based, Canis lupus familiaris; set-up: dose 3 mg/kg; conditions: in vivo

Cmax [1]: 82 ng/mL
half-life [2]: 7.2 h
Cmax [3]: 398 ng/mL
Cmax [5]: 1360 ng/mL
half-life [8]: 5.8 h
Activity [10]: inactive
Cmax [11]: 231 ng/mL
Activity [12]: inactive
half-life [13]: 5.5 h
half-life [14]: 5 h
half-life [15]: 4.7 h
AUC at 264 h [17]: 10600 ng·h/mL
AUC [18]: 115000 ng·h/mL
Cmax [19]: 2520 ng/mL
AUC at 264 h [20]: 47600 ng·h/mL
AUC at 192 h [21]: 13900 ng·h/mL
Efficacy [23]: 56%
AUC at 168 h [24]: 61600 ng·h/mL
half-life [27]: 5.2 h
half-life [28]: 5.1 h
AUC [29]: 24200 ng·h/mL
AUC at 264 h [30]: 249000 ng·h/mL
EC50 [32]: 100 nM
half-life [33]: 7.1 h
Cmax [34]: 1530 ng/mL
AUC at 168 h [37]: 6500 ng·h/mL
half-life [38]: 5.7 h
half-life [39]: 6.5 h
AUC at 264 h [40]: 2780 ng·h/mL
Cmax [42]: 10100 ng/mL
half-life [43]: 6 h
Cmax [44]: 6830 ng/mL
Cmax [45]: 6710 ng/mL
Structure (SMILES): Cc1cc(SCc2nc(-c3ccc(Cl)c(Cl)c3)ns2)ccc1OC(C)(C)C(=O)O
Activity (Canis familiaris [4]): Dose-dependent effect
Fold change [6]: 15
Activity (Mus musculus [7]): Active
Activity (Canis familiaris [9]): inactive
Activity (Canis familiaris [16]): Dose-dependent effect
Activity (Canis familiaris [22]): Dose-dependent effect
Fold change [25]: 4.8
Activity (Canis familiaris [26]): inactive
Activity (Mus musculus [31]): Dose-dependent effect
Activity (Mus musculus [35]): 52%
Activity (Mus musculus [36]): 50%
Activity (Mus musculus [41]): Dose-dependent effect
